In patent publication US11535629B2, “Dioxoloisoquinolinone derivatives and use thereof” (HANMI PHARMACEUTICAL CO., LTD., priority 2020, dated 2022):

Tested on: KARPAS-422 cells
Test: Cell growth inhibition test (CTG method)
Type: cell-based
Conditions: Homo sapiens, KARPAS-422, 168 h, KARPAS-422 (EZH2^Y641N mutant), culturing for 7 days; read-out: Cell growth inhibitory activity (GI50, nM) KARPAS-422 (EZH2^Y641N mutant)
Experimental: The cultured cell strain was prepared at 1.8×10^4 cells/400 μL and placed in a 48-well plate.

GI50 [nM]	SMILES
5.8	Cc1cc(C)c(CN2CCc3c(c(C)c4c(c3-c3ccc(F)nc3)O[C@](C)([C@H]3CC[C@H](N(C)C)CC3)O4)C2=O)c(=O)[nH]1 [Compound 36, (R)-6-((4,6-dimethyl-2-oxo-1,2-dihydropyridin-3-yl)methyl)-2-(trans-4-(dimethylamino)cyclohexyl)-9-(6-fluoropyridin-3-yl)-2,4-dimethyl-7,8-dihydro-[1,3]dioxolo[4,5-g]isoquinolin-5(6H)-one]
> 1000	Cc1cc(C)c(CN2CCc3c(c(C)c4c(c3-c3ccc(F)nc3)O[C@@](C)([C@H]3CC[C@H](N(C)C)CC3)O4)C2=O)c(=O)[nH]1 [Compound 37, (S)-6-((4,6-dimethyl-2-oxo-1,2-dihydropyridin-3-yl)methyl)-2-(trans-4-(dimethylamino)cyclohexyl)-9-(6-fluoropyridin-3-yl)-2,4-dimethyl-7,8-dihydro-[1,3]dioxolo[4,5-g]isoquinolin-5(6H)-on]
5.8	Cc1cc(C)c(CN2CCc3c(c(C)c4c(c3-c3cnn(C)c3)O[C@](C)([C@H]3CC[C@H](N(C)C)CC3)O4)C2=O)c(=O)[nH]1 [Compound 38, (R)-6-((4,6-dimethyl-2-oxo-1,2-dihydropyridin-3-yl)methyl)-2-(trans-4-(dimethylamino)cyclohexyl)-2,4-dimethyl-9-(1-methyl-1H-pyrazol-4-yl)-7,8-dihydro-[1,3]dioxolo[4,5-g]isoquinolin-5(6H)-on]
> 1000	Cc1cc(C)c(CN2CCc3c(c(C)c4c(c3-c3cnn(C)c3)O[C@@](C)([C@H]3CC[C@H](N(C)C)CC3)O4)C2=O)c(=O)[nH]1 [Compound 39, (S)-6-((4,6-dimethyl-2-oxo-1,2-dihydropyridin-3-yl)methyl)-2-(trans-4-(dimethylamino)cyclohexyl)-2,4-dimethyl-9-(1-methyl-1H-pyrazol-4-yl)-7,8-dihydro-[1,3]dioxolo[4,5-g]isoquinolin-5(6H)-one]
> 1000	Cc1cc(C)c(CN2CCc3c(c(C)c4c(c3-c3ccc(C)o3)O[C@@](C)([C@H]3CC[C@H](N(C)C)CC3)O4)C2=O)c(=O)[nH]1 [Compound 41, (S)-6-((4,6-dimethyl-2-oxo-1,2-dihydropyridin-3-yl)methyl)-2-(trans-4-(dimethylamino)cyclohexyl)-2,4-dimethyl-9-(5-methylfuran-2-yl)-7,8-dihydro-[1,3]dioxolo[4,5-g]isoquinolin-5(6H)-one]
5.7	Cc1cc(C)c(CN2CCc3c(c(C)c4c(c3-c3ccc(C)s3)O[C@](C)([C@H]3CC[C@H](N(C)C)CC3)O4)C2=O)c(=O)[nH]1 [Compound 42, (R)-6-((4,6-dimethyl-2-oxo-1,2-dihydropyridin-3-yl)methyl)-2-(trans-4-(dimethylamino)cyclohexyl)-2,4-dimethyl-9-(5-methylthiophen-2-yl)-7,8-dihydro-[1,3]dioxolo[4,5-g]isoquinolin-5(6H)-one]
> 1000	Cc1cc(C)c(CN2CCc3c(c(C)c4c(c3-c3ccc(C)s3)O[C@@](C)([C@H]3CC[C@H](N(C)C)CC3)O4)C2=O)c(=O)[nH]1 [Compound 43, (S)-6-((4,6-dimethyl-2-oxo-1,2-dihydropyridin-3-yl)methyl)-2-(trans-4-(dimethylamino)cyclohexyl)-2,4-dimethyl-9-(5-methylthiophen-2-yl)-7,8-dihydro-[1,3]dioxolo[4,5-g]isoquinolin-5(6H)-one]
> 1000	Cc1cc(C)c(CN2CCc3c(c(C)c4c(c3-c3cccnc3)O[C@@](C)([C@H]3CC[C@H](N(C)C)CC3)O4)C2=O)c(=O)[nH]1 [Compound 45, (S)-6-((4,6-dimethyl-2-oxo-1,2-dihydropyridin-3-yl)methyl)-2-(trans-4-(dimethylamino)cyclohexyl)-2,4-dimethyl-9-(pyridin-3-yl)-7,8-dihydro-[1,3]dioxolo[4,5-g]isoquinolin-5(6H)-one]
7	Cc1cc(C)c(CN2CCc3c(c(C)c4c(c3-c3cncnc3)O[C@](C)([C@H]3CC[C@H](N(C)C)CC3)O4)C2=O)c(=O)[nH]1 [Compound 46, (R)-6-((4,6-dimethyl-2-oxo-1,2-dihydropyridin-3-yl)methyl)-2-(trans-4-(dimethylamino)cyclohexyl)-2,4-dimethyl-9-(pyrimidin-5-yl)-7,8-dihydro-[1,3]dioxolo[4,5-g]isoquinolin-5(6H)-one]
> 1000	Cc1cc(C)c(CN2CCc3c(c(C)c4c(c3-c3cncnc3)O[C@@](C)([C@H]3CC[C@H](N(C)C)CC3)O4)C2=O)c(=O)[nH]1 [Compound 47, (S)-6-((4,6-dimethyl-2-oxo-1,2-dihydropyridin-3-yl)methyl)-2-(trans-4-(dimethylamino)cyclohexyl)-2,4-dimethyl-9-(pyrimidin-5-yl)-7,8-dihydro-[1,3]dioxolo[4,5-g]isoquinolin-5(6H)-one]
> 1000	Cc1cc(C)c(CN2CCc3c(c(C)c4c(c3-c3cccn3C)O[C@@](C)([C@H]3CC[C@H](N(C)C)CC3)O4)C2=O)c(=O)[nH]1 [Compound 49, (S)-6-((4,6-dimethyl-2-oxo-1,2-dihydropyridin-3-yl)methyl)-2-(trans-4-(dimethylamino)cyclohexyl)-2,4-dimethyl-9-(1-methyl-1H-pyrrol-2-yl)-7,8-dihydro-[1,3]dioxolo[4,5-g]isoquinolin-5 (6H)-one]
> 1000	Cc1cc(C)c(CN2CCc3c(c(C)c4c(c3-c3ccsc3)O[C@@](C)([C@H]3CC[C@H](N(C)C)CC3)O4)C2=O)c(=O)[nH]1 [Compound 51, (S)-6-((4,6-dimethyl-2-oxo-1,2-dihydropyridin-3-yl)methyl)-2-(trans-4-(dimethylamino)cyclohexyl)-2,4-dimethyl-9-(thiophen-3-yl)-7,8-dihydro-[1,3]dioxolo[4,5-g]isoquinolin-5(6H)-one]
> 1000	Cc1cc(C)c(CN2CCc3c(c(C)c4c(c3-c3cncs3)O[C@@](C)([C@H]3CC[C@H](N(C)C)CC3)O4)C2=O)c(=O)[nH]1 [Compound 53, (S)-6-((4,6-dimethyl-2-oxo-1,2-dihydropyridin-3-yl)methyl)-2-(trans-4-(dimethylamino)cyclohexyl)-2,4-dimethyl-9-(thiazol-5-yl)-7,8-dihydro-[1,3]dioxolo[4,5-g]isoquinolin-5(6H)-one]
28	Cc1cc(C)c(CN2CCc3c(c(C)c4c(c3-n3ccnc3)O[C@](C)([C@H]3CC[C@H](N(C)C)CC3)O4)C2=O)c(=O)[nH]1 [Compound 54, (R)-6-((4,6-dimethyl-2-oxo-1,2-dihydropyridin-3-yl)methyl)-2-(trans-4-(dimethylamino)cyclohexyl)-9-(1H-Imidazol-1-yl)-2,4-dimethyl-7,8-dihydro-[1,3]dioxolo[4,5-g]isoquinolin-5(6H)-one]
> 1000	Cc1cc(C)c(CN2CCc3c(c(C)c4c(c3-n3ccnc3)O[C@@](C)([C@H]3CC[C@H](N(C)C)CC3)O4)C2=O)c(=O)[nH]1 [Compound 55, (S)-6-((4,6-dimethyl-2-oxo-1,2-dihydropyridin-3-yl)methyl)-2-(trans-4-(dimethylamino)cyclohexyl)-9-(1H-imidazol-1-yl)-2,4-dimethyl-7,8-dihydro-[1,3]dioxolo[4,5-g]isoquinolin-5(6H)-one]
7.2	Cc1cc(C)c(CN2CCc3c(c(C)c4c(c3-c3ccoc3)O[C@](C)([C@H]3CC[C@H](N(C)C)CC3)O4)C2=O)c(=O)[nH]1 [Compound 56, (R)-6-((4,6-dimethyl-2-oxo-1,2-dihydropyridin-3-yl)methyl)-2-(trans-4-(dimethylamino)cyclohexyl)-9-(furan-3-yl)-2,4-dimethyl-7,8-dihydro-[1,3]dioxolo[4,5-g]isoquinolin-5(6H)-one]
> 1000	Cc1cc(C)c(CN2CCc3c(c(C)c4c(c3-c3ccoc3)O[C@@](C)([C@H]3CC[C@H](N(C)C)CC3)O4)C2=O)c(=O)[nH]1 [Compound 57, (S)-6-((4,6-dimethyl-2-oxo-1,2-dihydropyridin-3-yl)methyl)-2-(trans-4-(dimethylamino)cyclohexyl)-9-(furan-3-yl)-2,4-dimethyl-7,8-dihydro-[1,3]dioxolo[4,5-g]isoquinolin-5(6H)-one]
28	Cc1cc(C)c(CN2CCc3c(c(C)c4c(c3-c3ccco3)O[C@](C)([C@H]3CC[C@H](N)CC3)O4)C2=O)c(=O)[nH]1 [Compound 58, (R)-2-(trans-4-aminocyclohexyl)-6-((4,6-dimethyl-2-oxo-1,2-dihydropyridin-3-yl)methyl)-9-(furan-2-yl)-2,4-dimethyl-7,8-dihydro-[1,3]dioxolo[4,5-g]isoquinolin-5(6H)-one]
> 1000	Cc1cc(C)c(CN2CCc3c(c(C)c4c(c3-c3ccco3)O[C@@](C)([C@H]3CC[C@H](N)CC3)O4)C2=O)c(=O)[nH]1 [Compound 59, (S)-2-(trans-4-aminocyclohexyl)-6-((4,6-dimethyl-2-oxo-1,2-dihydropyridin-3-yl)methyl)-9-(furan-2-yl)-2,4-dimethyl-7,8-dihydro-[1,3]dioxolo[4,5-g]isoquinolin-5(6H)-one]
19	CN[C@H]1CC[C@H]([C@]2(C)Oc3c(C)c4c(c(-c5ccco5)c3O2)CCN(Cc2c(C)cc(C)[nH]c2=O)C4=O)CC1 [Compound 60, (R)-6-((4,6-dimethyl-2-oxo-1,2-dihydropyridin-3-yl)methyl)-9-(furan-2-yl)-2,4-dimethyl-2-(trans-4-(methylamino)cyclohexyl)-7,8-dihydro-[1,3]dioxolo[4,5-g]isoquinolin-5(6H)-one]
> 1000	CN[C@H]1CC[C@H]([C@@]2(C)Oc3c(C)c4c(c(-c5ccco5)c3O2)CCN(Cc2c(C)cc(C)[nH]c2=O)C4=O)CC1 [Compound 61, (S)-6-((4,6-dimethyl-2-oxo-1,2-dihydropyridin-3-yl)methyl)-9-(furan-2-yl)-2,4-dimethyl-2-(trans-4-(methylamino)cyclohexyl)-7,8-dihydro-[1,3]dioxolo[4,5-g]isoquinolin-5(6H)-one]
1.3 to 15	Cc1cc(C)c(CNC(=O)c2cc(Cl)c3c(c2C)O[C@@](C)([C@H]2CC[C@H](N(C)C)CC2)O3)c(=O)[nH]1 [Control B, (2R)-7-chloro-2-[trans-4-(dimethylamino)cyclohexyl]-N-[(4,6-dimethyl-2-oxo-1,2-dihydropyridin-3-yl)methyl]-2,4-dimethyl-1,3-benzodioxole-5-carboxamide, reference compound]
